Patent US20240336608A1, “IL4I1 INHIBITORS AND METHODS OF USE” (Merck Sharp & Dohme LLC, priority 2023, published 2024)

Target: T1, recombinant IL4I1 (Homo sapiens, UniProt Q96RQ9)
T1 construct: purchased R&D Systems 5684-AO-020
T1 sequence (Q96RQ9 22-567): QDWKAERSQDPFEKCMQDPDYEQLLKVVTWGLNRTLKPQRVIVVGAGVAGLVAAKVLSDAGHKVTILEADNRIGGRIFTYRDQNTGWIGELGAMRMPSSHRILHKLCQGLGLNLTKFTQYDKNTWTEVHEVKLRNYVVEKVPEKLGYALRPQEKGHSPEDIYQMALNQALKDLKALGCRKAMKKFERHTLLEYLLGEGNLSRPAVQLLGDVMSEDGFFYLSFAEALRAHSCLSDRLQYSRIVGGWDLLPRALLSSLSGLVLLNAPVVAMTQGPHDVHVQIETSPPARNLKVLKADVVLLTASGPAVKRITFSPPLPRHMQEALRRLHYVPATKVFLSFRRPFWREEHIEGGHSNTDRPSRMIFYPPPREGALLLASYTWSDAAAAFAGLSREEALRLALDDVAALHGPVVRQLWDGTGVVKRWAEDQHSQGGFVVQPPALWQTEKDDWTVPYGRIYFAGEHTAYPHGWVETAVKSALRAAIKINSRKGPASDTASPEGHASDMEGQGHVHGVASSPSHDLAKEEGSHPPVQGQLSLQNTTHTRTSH
Assay: IL4I1 Enzymatic Assay (Amplex Red/HRP coupled detection of H2O2, fluorescence)
Assay type: biochemical
Conditions: 1 nM recombinant IL4I1; four-hour pre-incubation with compound; 1 mM each Phe, Tyr, Trp; ten-point titration
Summary of the method: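 H2O2 output was coupled to resorufin fluorescence (ex 544/em 590) via 0.05 mM Amplex Red and 1 U/mL HRP. Substrate: Phe, Tyr, Trp at 1 mM each; enzyme 1 nM, 4 h compound pre-incubation, 120 min reaction, pH 7.0 Hepes. EC50 by nonlinear four-parameter regression, 1:3 ten-point titration.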

Row | EC50 [nM] | SMILES
1 | 19 | O=C(NCc1nnc(-c2ccccc2)s1)c1cn(Cc2ccccn2)nn1 [Example 101, N-((5-phenyl-1,3,4-thiadiazol-2-yl)methyl)-1-(pyridin-2-ylmethyl)-1H-1,2,3-triazole-4-carboxamide]
2 | 296 | CC(=O)N1CC(n2cc(C(=O)NCc3nnc(-c4ccccc4)s3)nn2)C1 [Example 102, 1-(1-acetylazetidin-3-yl)-N-((5-phenyl-1,3,4-thiadiazol-2-yl)methyl)-1H-1,2,3-triazole-4-carboxamide]
3 | 542 | O=C(NCc1nnc(-c2ccccc2)s1)c1cn(C2CN(C(=O)C3CC3)C2)nn1 [Example 103, 1-(1-(cyclopropanecarbonyl)azetidin-3-yl)-N-((5-phenyl-1,3,4-thiadiazol-2-yl)methyl)-1H-1,2,3-triazole-4-carboxamide]
4 | 909 | Cc1ccc(-n2cc(C(=O)NCc3nnc(-c4ccc(F)cc4F)s3)nn2)c(C)n1 [Example 105, N-((5-(2,4-difluorophenyl)-1,3,4-thiadiazol-2-yl)methyl)-1-(2,6-dimethylpyridin-3-yl)-1H-1,2,3-triazole-4-carboxamide]
5 | 695 | Cc1ccc(-n2cc(C(=O)NCc3nnc(-c4ccc(F)c(F)c4)s3)nn2)c(C)n1 [Example 106, N-((5-(3,4-difluorophenyl)-1,3,4-thiadiazol-2-yl)methyl)-1-(2,6-dimethylpyridin-3-yl)-1H-1,2,3-triazole-4-carboxamide]
6 | 58 | Cc1ccc(-n2cc(C(=O)NCc3nnc(-c4ccccc4C)s3)nn2)c(C)n1 [Example 107, 1-(2,6-dimethylpyridin-3-yl)-N-((5-(o-tolyl)-1,3,4-thiadiazol-2-yl)methyl)-1H-1,2,3-triazole-4-carboxamide]
7 | 651 | Cc1ccc(-n2cc(C(=O)NCc3nnc(-c4cc(F)ccc4F)s3)nn2)c(C)n1 [Example 108, N-((5-(2,5-difluorophenyl)-1,3,4-thiadiazol-2-yl)methyl)-1-(2,6-dimethylpyridin-3-yl)-1H-1,2,3-triazole-4-carboxamide]
8 | 29 | Cc1ccc(-n2cc(C(=O)NCc3nnc(-c4ccsc4C)s3)nn2)c(C)n1 [Example 109, 1-(2,6-dimethylpyridin-3-yl)-N-((5-(2-methylthiophen-3-yl)-1,3,4-thiadiazol-2-yl)methyl)-1H-1,2,3-triazole-4-carboxamide]
9 | 312 | Cc1ccc(-n2cc(C(=O)NCc3nnc(-c4cccc(F)c4C)s3)nn2)c(C)n1 [Example 110, 1-(2,6-dimethylpyridin-3-yl)-N-((5-(3-fluoro-2-methylphenyl)-1,3,4-thiadiazol-2-yl)methyl)-1H-1,2,3-triazole-4-carboxamide]
10 | 727 | Cc1ccc(-n2cc(C(=O)NCc3nnc(-c4ccc(F)cc4Cl)s3)nn2)c(C)n1 [Example 111, N-((5-(2-chloro-4-fluorophenyl)-1,3,4-thiadiazol-2-yl)methyl)-1-(2,6-dimethylpyridin-3-yl)-1H-1,2,3-triazole-4-carboxamide]
11 | 82 | Cc1ccc(-n2cc(C(=O)NCc3nnc(-c4ccccc4Cl)s3)nn2)c(C)n1 [Example 112, N-((5-(2-chlorophenyl)-1,3,4-thiadiazol-2-yl)methyl)-1-(2,6-dimethylpyridin-3-yl)-1H-1,2,3-triazole-4-carboxamide]
12 | 838 | Cc1ccc(-n2cc(C(=O)NCc3nnc(-c4ccc(Cl)cc4)s3)nn2)c(C)n1 [Example 113, N-((5-(4-chlorophenyl)-1,3,4-thiadiazol-2-yl)methyl)-1-(2,6-dimethylpyridin-3-yl)-1H-1,2,3-triazole-4-carboxamide]
13 | 37 | Cc1ccc(-n2cc(C(=O)NCc3nnc(-c4ccccc4F)s3)nn2)c(C)n1 [Example 114, 1-(2,6-dimethylpyridin-3-yl)-N-((5-(2-fluorophenyl)-1,3,4-thiadiazol-2-yl)methyl)-1H-1,2,3-triazole-4-carboxamide]
14 | 36 | Cc1ccc(-n2cc(C(=O)NCc3nnc(-c4ccc(O)cc4)s3)nn2)c(C)n1 [Example 115, 1-(2,6-dimethylpyridin-3-yl)-N-((5-(4-hydroxyphenyl)-1,3,4-thiadiazol-2-yl)methyl)-1H-1,2,3-triazole-4-carboxamide]
15 | 74 | Cc1ccc(-n2cc(C(=O)NCc3ccc(-c4ccccc4F)nn3)nn2)c(C)n1 [Example 116, 1-(2,6-dimethylpyridin-3-yl)-N-((6-(2-fluorophenyl)pyridazin-3-yl)methyl)-1H-1,2,3-triazole-4-carboxamide]
16 | 692 | Cc1ccc(-n2cc(C(=O)NCc3ccc(-c4cccc(F)c4F)nn3)nn2)c(C)n1 [Example 117, N-((6-(2,3-difluorophenyl)pyridazin-3-yl)methyl)-1-(2,6-dimethylpyridin-3-yl)-1H-1,2,3-triazole-4-carboxamide]
17 | 31 | Cc1ccc(-n2cc(C(=O)NCc3ccc(-c4ccsc4)nn3)nn2)c(C)n1 [Example 118, 1-(2,6-dimethylpyridin-3-yl)-N-((6-(thiophen-3-yl)pyridazin-3-yl)methyl)-1H-1,2,3-triazole-4-carboxamide]
18 | 482 | Cc1ccc(-n2cc(C(=O)NCc3ccc(-c4ccccc4Cl)nn3)nn2)c(C)n1 [Example 119, N-((6-(2-chlorophenyl)pyridazin-3-yl)methyl)-1-(2,6-dimethylpyridin-3-yl)-1H-1,2,3-triazole-4-carboxamide]

Continued, compound first:

Row | SMILES | EC50 [nM]
19 | COCCOCCn1cc(C(=O)NCc2nnc(-c3ccccc3)s2)nn1 [Example 85, 1-(2-(2-methoxyethoxy)ethyl)-N-((5-phenyl-1,3,4-thiadiazol-2-yl)methyl)-1H-1,2,3-triazole-4-carboxamide] | 15
20 | CC(C)(C)Cn1cc(C(=O)NCc2nnc(-c3ccccc3)s2)nn1 [Example 86, 1-neopentyl-N-((5-phenyl-1,3,4-thiadiazol-2-yl)methyl)-1H-1,2,3-triazole-4-carboxamide] | 42
21 | N#CC1(Cn2cc(C(=O)NCc3nnc(-c4ccccc4)s3)nn2)CC1 [Example 87, 1-((1-cyanocyclopropyl)methyl)-N-((5-phenyl-1,3,4-thiadiazol-2-yl)methyl)-1H-1,2,3-triazole-4-carboxamide] | 18
22 | CC(C)Cn1cc(C(=O)NCc2nnc(-c3ccccc3)s2)nn1 [Example 88, 1-isobutyl-N-((5-phenyl-1,3,4-thiadiazol-2-yl)methyl)-1H-1,2,3-triazole-4-carboxamide] | 13
23 | CCC(C)Cn1cc(C(=O)NCc2nnc(-c3ccccc3)s2)nn1 (stereo not drawn) [Example 89, 1-(2-methylbutyl)-N-((5-phenyl-1,3,4-thiadiazol-2-yl)methyl)-1H-1,2,3-triazole-4-carboxamide] | 37
24 | N#CCCCCn1cc(C(=O)NCc2nnc(-c3ccccc3)s2)nn1 [Example 90, 1-(4-cyanobutyl)-N-((5-phenyl-1,3,4-thiadiazol-2-yl)methyl)-1H-1,2,3-triazole-4-carboxamide] | 27
25 | CCOCCn1cc(C(=O)NCc2nnc(-c3ccccc3)s2)nn1 [Example 91, 1-(2-ethoxyethyl)-N-((5-phenyl-1,3,4-thiadiazol-2-yl)methyl)-1H-1,2,3-triazole-4-carboxamide] | 27
26 | CCCn1cc(C(=O)NCc2nnc(-c3ccccc3)s2)nn1 [Example 92, N-((5-phenyl-1,3,4-thiadiazol-2-yl)methyl)-1-propyl-1H-1,2,3-triazole-4-carboxamide] | 3
27 | O=C(NCc1nnc(-c2ccccc2)s1)c1cn(CCCF)nn1 [Example 93, 1-(3-fluoropropyl)-N-((5-phenyl-1,3,4-thiadiazol-2-yl)methyl)-1H-1,2,3-triazole-4-carboxamide] | 8
28 | CC(C)CCn1cc(C(=O)NCc2nnc(-c3ccccc3)s2)nn1 [Example 94, 1-isopentyl-N-((5-phenyl-1,3,4-thiadiazol-2-yl)methyl)-1H-1,2,3-triazole-4-carboxamide] | 68
29 | O=C(NCc1nnc(-c2ccccc2)s1)c1cn(C2CCCCC2)nn1 [Example 95, 1-cyclohexyl-N-((5-phenyl-1,3,4-thiadiazol-2-yl)methyl)-1H-1,2,3-triazole-4-carboxamide] | 189
30 | COCCCn1cc(C(=O)NCc2nnc(-c3ccccc3)s2)nn1 [Example 96, 1-(3-methoxypropyl)-N-((5-phenyl-1,3,4-thiadiazol-2-yl)methyl)-1H-1,2,3-triazole-4-carboxamide] | 16
31 | CC1(O)CCC(n2cc(C(=O)NCc3nnc(-c4ccccc4)s3)nn2)CC1 (stereo not drawn) [Example 97, 1-(4-hydroxy-4-methylcyclohexyl)-N-((5-phenyl-1,3,4-thiadiazol-2-yl)methyl)-1H-1,2,3-triazole-4-carboxamide] | 486
32 | O=C(NCc1nnc(-c2ccccc2)s1)c1cn(CCCC(F)(F)F)nn1 [Example 98, N-((5-phenyl-1,3,4-thiadiazol-2-yl)methyl)-1-(4,4,4-trifluorobutyl)-1H-1,2,3-triazole-4-carboxamide] | 272
33 | O=C(NCc1nnc(-c2ccccc2)s1)c1cn(Cc2ccncc2)nn1 [Example 99, N-((5-phenyl-1,3,4-thiadiazol-2-yl)methyl)-1-(pyridin-4-ylmethyl)-1H-1,2,3-triazole-4-carboxamide] | 21
